The values that follow come from US8871738B2, “Fused bicyclic oxazolidinone CETP inhibitor” (Merck Sharp & Dohme Corp., priority 2011, dated 2014).

endogenous CETP from serum, sequence (P11597 18-493 limits assumed): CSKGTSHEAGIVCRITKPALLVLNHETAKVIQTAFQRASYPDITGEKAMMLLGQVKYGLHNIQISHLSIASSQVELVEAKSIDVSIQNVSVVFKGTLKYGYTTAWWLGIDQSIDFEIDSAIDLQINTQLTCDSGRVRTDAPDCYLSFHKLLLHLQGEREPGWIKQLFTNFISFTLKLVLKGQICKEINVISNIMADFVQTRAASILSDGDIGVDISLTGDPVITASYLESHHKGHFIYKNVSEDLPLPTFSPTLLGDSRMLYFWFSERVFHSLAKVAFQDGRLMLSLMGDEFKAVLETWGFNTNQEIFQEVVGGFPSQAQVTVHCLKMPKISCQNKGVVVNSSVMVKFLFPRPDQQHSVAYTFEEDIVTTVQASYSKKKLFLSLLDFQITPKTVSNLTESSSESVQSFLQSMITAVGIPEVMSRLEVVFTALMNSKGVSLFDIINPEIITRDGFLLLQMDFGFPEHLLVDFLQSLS

The first assay concerns the target endogenous CETP from serum (Homo sapiens (Human), UniProt P11597). Kind of assay: RTA assay in 95% human serum (CETP-catalyzed CE and TG transfer, endogenous CETP). Type of assay: biochemical. To be noted: RTA assay in 95% human serum; read-out: IC50.
On to `COc1cc(F)c(C(C)C)cc1-c1ccc(C(F)(F)F)cc1[C@@H]1C=C[C@H]2[C@@H](c3cc(C(F)(F)F)cc(C(F)(F)F)c3)OC(=O)N12` [Example 51, (1R,5S,7aS)-1-[3,5-bis(trifluoromethyl)phenyl]-5-[4′-fluoro-2′-methoxy-5′-(1-methylethyl)-4-(trifluoromethyl)biphenyl-2-yl]-5,7a-dihydro-1H-pyrrolo[1,2-c][1,3]oxazol-3-one], for which the IC50 came to 122 nM.

On to `COc1ccc(C2CCC(C(=O)O)CC2)cc1-c1ccc(C(F)(F)F)cc1[C@@H]1CC[C@H]2[C@@H](c3cc(C)cc(C(F)(F)F)c3)OC(=O)N12` (stereo partly drawn) [Example 52, 4-[6-methoxy-2′-{(1R,5S,7aS)-1-[3-methyl-5-(trifluoromethyl)phenyl]-3-oxotetrahydro-1H-pyrrolo[1,2-c][1,3]oxazol-5-yl}-4′-(trifluoromethyl)biphenyl-3-yl]cyclohexanecarboxylic acid], for which the IC50 came to 260 nM.

Turning to `COc1cc(F)c(-c2ccc(C(=O)O)cc2C)cc1-c1cnc(C(F)(F)F)cc1[C@@H]1CC[C@H]2[C@@H](c3cc(C(F)(F)F)cc(C(F)(F)F)c3)OC(=O)N12` [Example 53, 5′-[4-{(1R,5S,7aS)-1-[3,5-bis(trifluoromethyl)phenyl]-3-oxotetrahydro-1H-pyrrolo[1,2-c][1,3]oxazol-5-yl}-6-(trifluoromethyl)pyridin-3-yl]-2′-fluoro-4′-methoxy-2-methylbiphenyl-4-carboxylic acid], the IC50 was determined as 191 nM. Regarding `COc1ncc(-c2ccc(C(=O)O)cc2C)cc1-c1ccc(C(F)(F)F)cc1[C@@H]1CC[C@H]2[C@@H](c3cc(C)cc(C(F)(F)F)c3)OC(=O)N12` [Example 55, 4-{6-methoxy-5-[2-{(1R,5S,7aS)-1-[3-methyl-5-(trifluoromethyl)phenyl]-3-oxotetrahydro-1H-pyrrolo[1,2-c][1,3]oxazol-5-yl}-4-(trifluoromethyl)phenyl]pyridin-3-yl}-3-methylbenzoic acid], the IC50 was determined as 85 nM. With `COc1ncc(-c2c(C)cc(C(=O)O)cc2C)cc1-c1ccc(C(F)(F)F)cc1[C@@H]1CC[C@H]2[C@@H](c3cc(C(F)(F)F)cc(C(F)(F)F)c3)OC(=O)N12` [Example 56, 4-{5-[2-{(1R,5S,7aS)-1-[3,5-bis(trifluoromethyl)phenyl]-3-oxotetrahydro-1H-pyrrolo[1,2-c][1,3]oxazol-5-yl}-4-(trifluoromethyl)phenyl]-6-methoxypyridin-3-yl}-3,5-dimethylbenzoic acid], the IC50 is 47 nM. Turning to `COc1ccc([C@@H]2C[C@@H](O)[C@@H](O)C2)cc1-c1ccc(C(F)(F)F)cc1[C@@H]1CC[C@H]2[C@@H](c3cc(C(F)(F)F)cc(C(F)(F)F)c3)OC(=O)N12` [Example 58, (1R,5S,7aS)-1-[3,5-bis(trifluoromethyl)phenyl]-5-{5′-[(1s,3R,4S)-3,4-dihydroxycyclopentyl]-2′-methoxy-4-(trifluoromethyl)biphenyl-2-yl}tetrahydro-1H-pyrrolo[1,2-c][1,3]oxazol-3-one], the IC50 came to 418 nM. Still for that read-out and setting: to `Cc1cc(C(=O)O)ccc1-c1cnc(C)c(-c2ccc(C(F)(F)F)cc2[C@@H]2CC[C@H]3[C@@H](c4cc(C(F)(F)F)cc(C(F)(F)F)c4)OC(=O)N23)c1` [Example 66, 4-{5-[2-{(1R,5S,7aS)-1-[3,5-bis(trifluoromethyl)phenyl]-3-oxotetrahydro-1H-pyrrolo[1,2-c][1,3]oxazol-5-yl}-4-(trifluoromethyl)phenyl]-6-methylpyridin-3-yl}-3-methylbenzoic acid] belongs 1290 nM.

With `COc1ncc(-c2ccc(C(=O)O)cc2C)cc1-c1ccc(C(F)(F)F)cc1[C@@H]1C=C[C@H]2[C@@H](c3cc(C(F)(F)F)cc(C(F)(F)F)c3)OC(=O)N12` [Example 67, 4-(5-(2-((1R,5S,7aS)-1-(3,5-bis(trifluoromethyl)phenyl)-3-oxo-1,3,5,7a-tetrahydropyrrolo[1,2-c]oxazol-5-yl)-4-(trifluoromethyl)phenyl)-6-methoxypyridin-3-yl)-3-methylbenzoic acid], the IC50 amounted to 199 nM. Same read-out and setting: then `COc1ccc(-c2ccc(C(=O)O)cc2C)cc1-c1ncc(C(F)(F)F)cc1[C@@H]1C=C[C@H]2[C@@H](c3cc(C(F)(F)F)cc(C(F)(F)F)c3)OC(=O)N12` [Example 68, 3′-(3-((1R,5S,7aS)-1-(3,5-bis(trifluuoromethyl)phenyl)-3-oxo-1,3,5,7a-tetrahydropyrrolo[1,2-c]oxazol-5-yl)-5-(trifluoromethyl)pyridin-2-yl)-4′-methoxy-2-methyl-[1,1′-biphenyl]-4-carboxylic acid], with 424 nM; and `COc1ncc(-c2ccc(C(=O)O)cc2C)cc1-c1ncc(C(F)(F)F)cc1[C@@H]1C=C[C@H]2[C@@H](c3cc(C(F)(F)F)cc(C(F)(F)F)c3)OC(=O)N12` [Example 69, 4-(3-((1R,5S,7aS)-1-(3,5-bis(trifluoromethyl)phenyl)-3-oxo-1,3,5,7a-tetrahydropyrrolo[1,2-c]oxazol-5-yl)-2′-methoxy-5-(trifluoromethyl)-[2,3′-bipyridin]-5′-yl)-3-methylbenzoic acid], with 456 nM. On the same count and under the same terms, to `COc1ncc(-c2c(C)cc(C(=O)O)cc2C)cc1-c1ncc(C(F)(F)F)cc1[C@@H]1CC[C@H]2[C@@H](c3cc(C(F)(F)F)cc(C(F)(F)F)c3)OC(=O)N12` [Example 70, 4-[3-{(1R,5S,7aS)-1-[3,5-bis(trifluoromethyl)phenyl]-3-oxotetrahydro-1H-pyrrolo[1,2-c][1,3]oxazol-5-yl}-2′-methoxy-5-(trifluoromethyl)-2,3′-bipyridin-5′-yl]-3,5-dimethylbenzoic acid] belongs 751 nM.

Regarding `COc1ccc([C@@H]2CC(=O)N[C@H]2C)cc1-c1ccc(C(F)(F)F)cc1[C@@H]1CC[C@H]2[C@@H](c3cc(C(F)(F)F)cc(C(F)(F)F)c3)OC(=O)N12` [Example 76, (1R,5S,7aS)-1-[3,5-bis(trifluoromethyl)phenyl]-5-{2′-methoxy-5′-[(2S,3S)-2-methyl-5-oxopyrrolidin-3-yl]-4-(trifluoromethyl)biphenyl-2-yl}tetrahydro-1H-pyrrolo[1,2-c][1,3]oxazol-3-one], the IC50 was 466 nM.

Staying with this assay, now noted: RTA assay, 95% human serum; read-out: RTA (95% HS).
`COc1ccc(CCc2n[nH]c(=O)o2)cc1-c1ccc(C(F)(F)F)cc1[C@@H]1CCC[C@H]2[C@@H](c3cc(C(F)(F)F)cc(C(F)(F)F)c3)OC(=O)N12` [Example 80, (1R,5S,8aS)-1-[3,5-bis(trifluoromethyl)phenyl]-5-{2′-methoxy-5′-[2-(5-oxo-4,5-dihydro-1,3,4-oxadiazol-2-yl)ethyl]-4-(trifluoromethyl)biphenyl-2-yl}hexahydro[1,3]oxazolo[3,4-a]pyridin-3-one]: the IC50 is 942 nM. The same measure, in the same setting: then `COc1ccc(CCc2nnc(N)o2)cc1-c1ccc(C(F)(F)F)cc1[C@@H]1CCC[C@H]2[C@@H](c3cc(C(F)(F)F)cc(C(F)(F)F)c3)OC(=O)N12` [Example 82, (1R,5S,8aS)-5-{5′-[2-(5-amino-1,3,4-oxadiazol-2-yl)ethyl]-2′-methoxy-4-(trifluoromethyl)biphenyl-2-yl}-1-[3,5-bis(trifluoromethyl)phenyl]hexahydro[1,3]oxazolo[3,4-a]pyridin-3-one], with 1320 nM.

System in the next assay: not given
Experiment: not given
The note with it: patients treated with anacetrapib along with baseline statin therapy compared with just a statin; cited from earlier work.
Regarding `COc1cc(F)c(C(C)C)cc1-c1ccc(C(F)(F)F)cc1CN1C(=O)O[C@H](c2cc(C(F)(F)F)cc(C(F)(F)F)c2)[C@@H]1C` [anacetrapib], the “decrease of LDL-C” value is on record as 40% and the “increase of HDL-C” value is 138%.
